Experimental data as given in publication PMC12040169 (PLOS Biology, 2025).

Assay: in vitro
Conditions: human, hela cells, % viability

Compound | viability at 28.5 h, 10 µM [%]
Clc1ccc(CN2CCC(Oc3cncc(OCCN4CCOCC4)n3)C2)cc1 (centres unmarked) [CBK084480] | 90.9
O=[N+]([O-])c1ccc(CN2CCC(Oc3cncc(OCCN4CCOCC4)n3)C2)cc1 (centres unmarked) [CBK084485] | 95.2
c1cc2c(cc1CN1CCC(Oc3cncc(OCCN4CCOCC4)n3)C1)OCO2 (centres unmarked) [CBK084487] | 96.7
NC(=O)CN1CCC(Oc2cncc(OCCN3CCOCC3)n2)C1 (centres unmarked) [CBK084488] | 111
Cc1cccc(C)c1NC(=O)CN1CCC(Oc2cncc(OCCN3CCOCC3)n2)C1 (centres unmarked) [CBK084489] | 95.5
CCN(CC)C(=O)CN1CCC(Oc2cncc(OCCN3CCOCC3)n2)C1 (centres unmarked) [CBK084490] | 101
CCOC(=O)CN1CCC(Oc2cncc(OCCN3CCOCC3)n2)C1 (centres unmarked) [CBK084491] | 89.3
c1ccc(OCCN2CCC(Oc3cncc(OCCN4CCOCC4)n3)C2)cc1 (centres unmarked) [CBK084499] | 113
c1ccc2c(CCN3CCC(Oc4cncc(OCCN5CCOCC5)n4)C3)c[nH]c2c1 (centres unmarked) [CBK084500] | 100
c1ccc2cc(CCN3CCC(Oc4cncc(OCCN5CCOCC5)n4)C3)ccc2c1 (centres unmarked) [CBK084503] | 92.7
Nc1ncc(-c2ccc(C(=O)O)cc2)nc1-c1ccc(C(=O)N2CCOCC2)cc1 [CBK084518] | 90.8
CC(C)(C)c1ccc(-c2cnc(N)c(-c3ccc(C(=O)N4CCOCC4)cc3)n2)cc1 [CBK084543A] | 98.2
COc1ccc(Br)c(C(=O)Nc2[nH]nc(O)c2Cc2c(Cl)cccc2Cl)c1 [CBK084554] | 111
CC[C@@H]1CCCCN1C(=O)c1ccc(Cl)c(C)c1 [CBK084565] | 91.6
COc1ccc2[nH]c3c(c2c1)CCN(CC(C)O)C31CCN(CCOc2ccccc2)C1 (centres unmarked) [CBK084612T] | 73
COc1ccc([C@H](NC(=O)C2CCN(C(=O)OCc3ccccc3)CC2)c2ccccc2C)cn1 [CBK084639] | 92.9
O=C(CN(C(=O)CNC(=O)c1cccs1)c1cccc(C(F)(F)F)c1)NC1CCCCC1 [CBK084697] | 94.5
O=C(NCC(=O)N(c1cccc(C(F)(F)F)c1)C(C(=O)NCc1ccco1)c1ccccc1F)c1ccco1 (centres unmarked) [CBK084740] | 96
COc1ccc(Cn2nnnc2C(CC(C)C)N2CCC(C(N)=O)CC2)cc1 (centres unmarked) [CBK084783] | 90
O=C(NC1CCCCC1)NC1CCN(Cc2nnnn2Cc2ccco2)CC1 [CBK085007] | 100
CC(=O)Nc1ccc(NC2SC(=O)N(c3ccccc3)C2=O)cc1 (centres unmarked) [CBK085110] | 88.4
Cc1cc(NS(=O)(=O)c2ccc(NC(=O)C(c3ccccc3)c3ccccc3)cc2)no1 [CBK085112] | 94

Compound | viability at 28.5 h, 10 µM [%]
O=C(NC(Cc1c[nH]c2ccccc12)C(=O)NC1CCCCC1)OCc1ccccc1 (centres unmarked) [CBK085144] | 89
CCc1nnc(NS(=O)(=O)c2ccc(NCc3ccccc3O)cc2)s1 [CBK085149] | 113
Cc1[nH]n(-c2nc3ccccc3o2)c(=O)c1Cc1c(Cl)cccc1Cl [CBK085382] | 96.5
Fc1ccc2[nH]c3c(c2c1)CCNC31CCN(CCOc2ccccc2)C1 (centres unmarked) [CBK085404T] | 98
Brc1cn2ccnc2c(N2CCCC2)n1 [CBK085449] | 117
Cc1cc(COc2cc(N3CCCNCC3)ncn2)no1 [CBK085462] | 95.4
c1nc(OCCN2CCOCC2)cc(N2CCCNCC2)n1 [CBK085466] | 86.2
c1ccc2c(c1)OCC(COc1nccc(N3CCCNCC3)n1)O2 (centres unmarked) [CBK085471] | 89.8
Cc1nc2ccc(NC(=O)Nc3ccnc4cccnc34)cc2o1 [CBK085498] | 90
CS(=O)(=O)Nc1ccc2cc(-c3cccc(C(F)(F)F)c3)cnc2n1 [CBK085671] | 94.1
COc1ccc(-c2nc(NS(C)(=O)=O)cc3cccnc23)cc1C [CBK085677] | 85.5
CS(=O)(=O)Nc1cc2cccnc2nc1-c1ccccc1 [CBK085689] | 104
COc1cc(-c2nc3ncccc3cc2NS(C)(=O)=O)cc(OC)c1OC [CBK085697] | 92.7
Nc1cc2ccccc2c(-c2ccncc2)n1 [CBK085708] | 99.1
Nc1cc2ccccc2c(-c2cc(F)cc(F)c2)n1 [CBK085711] | 97
Nc1cc2ccccc2c(-c2ccc(OC(F)(F)F)cc2)n1 [CBK085725] | 99.4
CSc1ccc(-c2nc(NC(=O)C(C)C)cc3ccccc23)cc1 [CBK085735] | 95.5
CC(C)C(=O)Nc1cc2ccccc2c(-c2cccc(C(F)(F)F)c2)n1 [CBK085738] | 95.6
CS(=O)(=O)Nc1cc2ccccc2c(-c2ccncc2)n1 [CBK085746] | 92
CS(=O)(=O)Nc1cc2ccccc2c(-c2ccsc2)n1 [CBK085748] | 89.7
CS(=O)(=O)Nc1cc2ccccc2c(-c2cccc(C(F)(F)F)c2)n1 [CBK085754] | 92.9
CS(=O)(=O)Nc1cc2ccccc2c(-c2ccc(OC(F)(F)F)cc2)n1 [CBK085757] | 121

Compound | viability at 28.5 h, 10 µM [%]
CCNc1cc2ccccc2c(-c2cccc(C(F)(F)F)c2)n1 [CBK085772] | 101
CNC(=O)CCCc1[nH]nc(O)c1Cc1c(Cl)cccc1Cl [CBK085827] | 89.4
Nc1cccc(Sc2ncccn2)c1 [CBK085844] | 93.4
CC(=O)Nc1ccc(Sc2ccccn2)cc1 [CBK085853] | 101
COc1nc(SC)nc2[nH]ccc12 [CBK085861] | 95
Cc1nc2ccc(Br)cc2c(=O)n1Cc1cccs1 [CBK085890] | 89.7
N#CCC(=O)Nc1ccc(F)c(Cl)c1 [CBK085905] | 95.4
CCCCN1C(=O)N(c2nnc(C(C)(C)C)s2)C(=O)C1c1ccc(Cl)c(Cl)c1 (centres unmarked) [CBK085921] | 114
Cc1ccc(-c2nc3ccccc3[nH]2)cc1 [CBK085933] | 89.9
Fc1c(CN2CCOCC2)cccc1CN1CCOCC1 [CBK085967] | 97.6
O=C(Nc1ccccc1F)c1cc(Cl)sc1Cl [CBK085969] | 93.3
CC(=O)c1nnn(-c2cc(Cl)ccc2Cl)c1C [CBK085973] | 104
CC1CCN(C(=S)NC2CC3CCC2C3)CC1 (centres unmarked) [CBK085998] | 91.3
CC(C)(C)OC(=O)N1CCC(CNS(=O)(=O)c2cccc3cccnc23)CC1 [CBK086017] | 97.1
CC(C)(C)OC(=O)N1CCC(CNS(=O)(=O)c2cc(Cl)sc2Cl)CC1 [CBK086018] | 114
N#Cc1ccc(NC(=O)Nc2ccccc2)cc1 [CBK086045] | 87.8
O=C(Nc1ccc(Cl)cc1)Nc1ccc(OCC(O)CN2CCCCC2)cc1 (centres unmarked) [CBK086101] | 99.4
N#Cc1cnn(-c2ccc(Cl)cc2Cl)c1N [CBK086125] | 89.2
CSCC(CSC)OC(=O)Nc1ccc(Cl)cc1 [CBK086154] | 93.9
O=C(O)CC1(CC(=O)N2CCN(C(c3ccccc3)c3ccccc3)CC2)CCCC1 [CBK086174] | 98.7
O=C(CC1C(=O)NCCN1C(=O)Nc1ccc(OCc2ccccc2)cc1)Nc1ccc(F)cc1 (centres unmarked) [CBK086203] | 113
CCCc1cnc(N2CCN(S(=O)(=O)c3ccc(NC(C)=O)cc3Cl)CC2)nc1 [CBK086208] | 117

Compound | viability at 28.5 h, 10 µM [%]
Clc1ccc(CNCc2cccnc2)cc1 [CBK086257C] | 108
CSc1nc(O)nc(-c2ccccc2)n1 [CBK086310] | 95.4
Cc1cc(C)c(NC(N)=O)c(C)c1 [CBK086399] | 105
CCOC(=O)C1=C(C)NC(=O)NC1c1cccs1 (centres unmarked) [CBK086430] | 78
O=C(CN1CCOCC1)Nc1ccc(Cl)cc1C(=O)c1ccccc1 [CBK086450] | 95.9
CCSc1nc(N)cc(O)n1 [CBK086474] | 90.5
Cc1cc2nc(-c3ccccc3)[nH]c2cc1C [CBK086484] | 80.1
OCCCNC(=S)Nc1ccc(Br)cc1Cl [CBK086487] | 82.3
CC1=CCC2C(=O)N(c3ccccc3)C(=O)C2C1 (centres unmarked) [CBK086490] | 84.1
O=C1COCC(=O)N1c1ccc(I)cc1 [CBK086499] | 87.5
CC(C)(CC(=O)O)CC(=O)Nc1ccc(Cl)c(Cl)c1 [CBK086500] | 92.6
Cc1onc(-c2c(Cl)cccc2Cl)c1N(C)C(=O)N1CCCCC1 [CBK086555] | 109
CC(C)(C)OC(=O)NC1CCN(C(=O)Nc2ccc(OCc3ccccc3)cc2)CC1 [CBK086602] | 98.4
O=C1NC2(CCNCC2)Oc2ccc(-c3cccnc3)cc21 [CBK086611] | 95.4
CCOC(=O)c1cnc(SC)nc1NCCc1c[nH]cn1 [CBK086623] | 92.6
O=C(NCc1ccccc1)c1ccco1 [CBK086713] | 118
Cc1cc(OCC(O)CN(Cc2ccccc2)C(C)(C)C)ccc1[N+](=O)[O-] (centres unmarked) [CBK086757] | 99.6
Cc1ccccc1C(=O)Nc1ccc(S(=O)(=O)Nc2nccs2)cc1 [CBK086797] | 89.4
O=C(COc1cccc2ccccc12)N/N=C/c1ccco1 [CBK086853] | 103
CC(C)(C)c1nnc(NC(=O)c2ccc(F)cc2)s1 [CBK086855] | 89
COc1cc2c(cc1OC)/C(=C(\C(=O)Nc1ccccc1)C(=O)N1CCCCC1)NC(C)(C)C2 [CBK087103] | 94.5
Cc1cc(C)n(-c2nc3c(c(=O)[nH]c(=O)n3C)n2CCc2ccccc2)n1 [CBK087129] | 90.2

Same assay, conditions: human, hela cells, % viability, bulk resorufin, single well

Compound | viability at 28.5 h, 10 µM [%]
CCOC(=O)N1CCC2(CC1)Oc1ccc(Cl)cc1O2 [CBK084590] | 94.2
CCOC(=O)N1CCC2(CC1)Oc1ccc(-c3cccc4ncccc34)cc1O2 [CBK085454] | 99.8
c1ccc(-c2ccc3c(c2)OC2(CCNCC2)O3)cc1 [CBK085501] | 103
CN1C(=O)CC(c2ccccc2)Nc2ccccc21 (centres unmarked) [CBK086373C] | 103
